Data as given in PubChem BioAssay (NCI).
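Results reflect a 48-hour exposure of cells in 96-well plates to compound at five concentrations. TGI is the concentration that stops growth completely.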

Key:
Assay in all cases: growth of human tumour cells (NCI), 48 h
786-0 renal = test system: 786-0 renal
A498 renal = test system: A498 renal
A549 NSCLC = test system: A549 NSCLC
ACHN renal = test system: ACHN renal
BT-549 breast = test system: BT-549 breast
CAKI-1 renal = test system: CAKI-1 renal
CCRF-CEM leukemia = test system: CCRF-CEM leukemia
COLO 205 colon = test system: COLO 205 colon
DU-145 prostate = test system: DU-145 prostate
EKVX NSCLC = test system: EKVX NSCLC
HCT-116 colon = test system: HCT-116 colon
HCT-15 colon = test system: HCT-15 colon
HL-60(TB) leukemia = test system: HL-60(TB) leukemia
HOP-62 NSCLC = test system: HOP-62 NSCLC
HOP-92 NSCLC = test system: HOP-92 NSCLC
HS 578T breast = test system: HS 578T breast
HT29 colon = test system: HT29 colon
IGROV1 ovarian = test system: IGROV1 ovarian
K-562 leukemia = test system: K-562 leukemia
KM12 colon = test system: KM12 colon
LOX IMVI melanoma = test system: LOX IMVI melanoma
M14 melanoma = test system: M14 melanoma
MALME-3M melanoma = test system: MALME-3M melanoma
MCF7 breast = test system: MCF7 breast
MDA-MB-231 breast = test system: MDA-MB-231 breast
MDA-MB-435 = test system: MDA-MB-435
MDA-N = test system: MDA-N
MOLT-4 leukemia = test system: MOLT-4 leukemia
NCI-H226 lung = test system: NCI-H226 lung
NCI-H23 lung = test system: NCI-H23 lung
NCI-H460 lung = test system: NCI-H460 lung
NCI-H522 lung = test system: NCI-H522 lung
NCI/ADR-RES ovarian = test system: NCI/ADR-RES ovarian
OVCAR-3 ovarian = test system: OVCAR-3 ovarian
OVCAR-4 ovarian = test system: OVCAR-4 ovarian
OVCAR-5 ovarian = test system: OVCAR-5 ovarian
OVCAR-8 ovarian = test system: OVCAR-8 ovarian
PC-3 prostate = test system: PC-3 prostate
RPMI-8226 leukemia = test system: RPMI-8226 leukemia
RXF 393 renal = test system: RXF 393 renal
SF-268 CNS = test system: SF-268 CNS
SF-295 CNS = test system: SF-295 CNS
SF-539 CNS = test system: SF-539 CNS
SK-MEL-2 melanoma = test system: SK-MEL-2 melanoma
SK-MEL-28 melanoma = test system: SK-MEL-28 melanoma
SK-MEL-5 melanoma = test system: SK-MEL-5 melanoma
SK-OV-3 ovarian = test system: SK-OV-3 ovarian
SN12C renal = test system: SN12C renal
SNB-19 CNS = test system: SNB-19 CNS
SNB-75 CNS = test system: SNB-75 CNS
SR leukemia = test system: SR leukemia
SW-620 colon = test system: SW-620 colon
T-47D breast = test system: T-47D breast
TK-10 renal = test system: TK-10 renal
U251 CNS = test system: U251 CNS
UACC-257 melanoma = test system: UACC-257 melanoma
UACC-62 melanoma = test system: UACC-62 melanoma
UO-31 renal = test system: UO-31 renal
HCC-2998 colon = test system: HCC-2998 colon

Q: How did the TGI (786-0 renal) turn out when CO[C@@H]1C=C[C@@]23c4cc5c(cc4C(O)N(CC2O)C3C1)OCO5 (some centres undefined) was run?
A: 22.6 µM

Q: What about the TGI (A498 renal) of the same compound?
A: 7.68 µM

Q: And the TGI (A549 NSCLC)?
A: 39.5 µM

Q: What about the TGI (ACHN renal) of the same compound?
A: 18.6 µM

Q: And the TGI (BT-549 breast)?
A: 20.5 µM

Q: And the TGI (CAKI-1 renal)?
A: 27.2 µM

Q: What about the TGI (CCRF-CEM leukemia) of the same compound?
A: 5.38 µM

Q: And the TGI (COLO 205 colon)?
A: 14.2 µM

Q: What about the TGI (DU-145 prostate) of the same compound?
A: 50.7 µM

Q: What about the TGI (EKVX NSCLC) of the same compound?
A: 33.3 µM

Q: And the TGI (HCT-116 colon)?
A: 21.3 µM

Q: And the TGI (HCT-15 colon)?
A: 39.3 µM

Q: And the TGI (HL-60(TB) leukemia)?
A: 5.64 µM

Q: What about the TGI (HOP-62 NSCLC) of the same compound?
A: > 100 µM

Q: And the TGI (HOP-92 NSCLC)?
A: 13.6 µM

Q: What about the TGI (HS 578T breast) of the same compound?
A: > 100 µM

Q: What about the TGI (HT29 colon) of the same compound?
A: 26.2 µM

Q: And the TGI (IGROV1 ovarian)?
A: 68.9 µM

Q: What about the TGI (K-562 leukemia) of the same compound?
A: > 100 µM

Q: What about the TGI (KM12 colon) of the same compound?
A: 17 µM

Q: And the TGI (LOX IMVI melanoma)?
A: 48.5 µM

Q: What about the TGI (M14 melanoma) of the same compound?
A: 12.6 µM

Q: And the TGI (MALME-3M melanoma)?
A: > 100 µM

Q: What about the TGI (MCF7 breast) of the same compound?
A: 8.64 µM

Q: And the TGI (MDA-MB-231 breast)?
A: 21.8 µM

Q: And the TGI (MDA-MB-435)?
A: 18.2 µM

Q: What about the TGI (MDA-N) of the same compound?
A: 26.1 µM

Q: And the TGI (MOLT-4 leukemia)?
A: > 100 µM

Q: And the TGI (NCI-H226 lung)?
A: > 100 µM

Q: What about the TGI (NCI-H23 lung) of the same compound?
A: 56.1 µM

Q: What about the TGI (NCI-H460 lung) of the same compound?
A: 12.9 µM

Q: What about the TGI (NCI-H522 lung) of the same compound?
A: > 100 µM

Q: What about the TGI (NCI/ADR-RES ovarian) of the same compound?
A: 75.1 µM

Q: What about the TGI (OVCAR-3 ovarian) of the same compound?
A: 58.8 µM

Q: What about the TGI (OVCAR-4 ovarian) of the same compound?
A: 19.4 µM

Q: And the TGI (OVCAR-5 ovarian)?
A: 79.3 µM

Q: And the TGI (OVCAR-8 ovarian)?
A: > 100 µM

Q: And the TGI (PC-3 prostate)?
A: 17.5 µM

Q: And the TGI (RPMI-8226 leukemia)?
A: > 100 µM

Q: And the TGI (RXF 393 renal)?
A: 50.3 µM

Q: And the TGI (SF-268 CNS)?
A: > 100 µM

Q: And the TGI (SF-295 CNS)?
A: 64.1 µM

Q: What about the TGI (SF-539 CNS) of the same compound?
A: > 100 µM

Q: And the TGI (SK-MEL-2 melanoma)?
A: 9.09 µM

Q: What about the TGI (SK-MEL-28 melanoma) of the same compound?
A: > 100 µM

Q: And the TGI (SK-MEL-5 melanoma)?
A: 6.01 µM

Q: And the TGI (SK-OV-3 ovarian)?
A: > 100 µM

Q: What about the TGI (SN12C renal) of the same compound?
A: > 100 µM

Q: And the TGI (SNB-19 CNS)?
A: 33.8 µM

Q: What about the TGI (SNB-75 CNS) of the same compound?
A: 6.92 µM

Q: And the TGI (SR leukemia)?
A: > 100 µM

Q: What about the TGI (SW-620 colon) of the same compound?
A: > 100 µM

Q: And the TGI (T-47D breast)?
A: 8.01 µM

Q: And the TGI (TK-10 renal)?
A: 23 µM

Q: What about the TGI (U251 CNS) of the same compound?
A: 16.6 µM

Q: What about the TGI (UACC-257 melanoma) of the same compound?
A: 5.9 µM

Q: What about the TGI (UACC-62 melanoma) of the same compound?
A: 20.4 µM

Q: And the TGI (UO-31 renal)?
A: 36.8 µM

Q: Which results are given for O=c1cc(O)c2ccccc2o1?
A: TGI (786-0 renal): > 100 µM; TGI (A498 renal): > 100 µM; TGI (A549 NSCLC): > 100 µM; TGI (ACHN renal): > 100 µM; TGI (BT-549 breast): > 100 µM; TGI (CAKI-1 renal): > 100 µM; TGI (CCRF-CEM leukemia): > 100 µM; TGI (COLO 205 colon): > 100 µM; TGI (DU-145 prostate): > 100 µM; TGI (EKVX NSCLC): > 100 µM; TGI (HCC-2998 colon): > 100 µM; TGI (HCT-116 colon): > 100 µM; TGI (HL-60(TB) leukemia): > 100 µM; TGI (HOP-62 NSCLC): > 100 µM; TGI (HOP-92 NSCLC): > 100 µM; TGI (HS 578T breast): > 100 µM; TGI (HT29 colon): > 100 µM; TGI (IGROV1 ovarian): > 100 µM; TGI (K-562 leukemia): > 100 µM; TGI (KM12 colon): > 100 µM; TGI (LOX IMVI melanoma): > 100 µM; TGI (M14 melanoma): > 100 µM; TGI (MALME-3M melanoma): > 100 µM; TGI (MCF7 breast): > 100 µM; TGI (MDA-MB-231 breast): > 100 µM; TGI (MDA-MB-435): > 100 µM; TGI (MDA-N): > 100 µM; TGI (MOLT-4 leukemia): > 100 µM; TGI (NCI-H226 lung): > 100 µM; TGI (NCI-H23 lung): > 100 µM; TGI (NCI-H460 lung): > 100 µM; TGI (NCI-H522 lung): > 100 µM; TGI (NCI/ADR-RES ovarian): > 100 µM; TGI (OVCAR-3 ovarian): > 100 µM; TGI (OVCAR-4 ovarian): > 100 µM; TGI (OVCAR-5 ovarian): > 100 µM; TGI (OVCAR-8 ovarian): > 100 µM; TGI (PC-3 prostate): > 100 µM; TGI (RPMI-8226 leukemia): > 100 µM; TGI (RXF 393 renal): > 100 µM; TGI (SF-268 CNS): > 100 µM; TGI (SF-295 CNS): > 100 µM; TGI (SF-539 CNS): > 100 µM; TGI (SK-MEL-28 melanoma): > 100 µM; TGI (SK-MEL-5 melanoma): > 100 µM; TGI (SN12C renal): > 100 µM; TGI (SNB-19 CNS): > 100 µM; TGI (SNB-75 CNS): > 100 µM; TGI (SR leukemia): > 100 µM; TGI (SW-620 colon): > 100 µM; TGI (T-47D breast): > 100 µM; TGI (TK-10 renal): > 100 µM; TGI (U251 CNS): > 100 µM; TGI (UACC-257 melanoma): > 100 µM; TGI (UACC-62 melanoma): > 100 µM; TGI (UO-31 renal): > 100 µM
